These are literature values, as cited in patent publication US20070083941A1, “Rat TRPM7 polynucleotide and encoded protein” (Wyeth, priority 2005, published 2007).

The data set has as its target TRPM7 (Homo sapiens, UniProt Q96QT4). Particulars: high concentrations of intracellular MgATP and Mg^2+; basal activity of TRPM7; read-out: IC50 of inhibition of TRPM7.

TRPM7, sequence (Q96QT4 whole entry, species assumed): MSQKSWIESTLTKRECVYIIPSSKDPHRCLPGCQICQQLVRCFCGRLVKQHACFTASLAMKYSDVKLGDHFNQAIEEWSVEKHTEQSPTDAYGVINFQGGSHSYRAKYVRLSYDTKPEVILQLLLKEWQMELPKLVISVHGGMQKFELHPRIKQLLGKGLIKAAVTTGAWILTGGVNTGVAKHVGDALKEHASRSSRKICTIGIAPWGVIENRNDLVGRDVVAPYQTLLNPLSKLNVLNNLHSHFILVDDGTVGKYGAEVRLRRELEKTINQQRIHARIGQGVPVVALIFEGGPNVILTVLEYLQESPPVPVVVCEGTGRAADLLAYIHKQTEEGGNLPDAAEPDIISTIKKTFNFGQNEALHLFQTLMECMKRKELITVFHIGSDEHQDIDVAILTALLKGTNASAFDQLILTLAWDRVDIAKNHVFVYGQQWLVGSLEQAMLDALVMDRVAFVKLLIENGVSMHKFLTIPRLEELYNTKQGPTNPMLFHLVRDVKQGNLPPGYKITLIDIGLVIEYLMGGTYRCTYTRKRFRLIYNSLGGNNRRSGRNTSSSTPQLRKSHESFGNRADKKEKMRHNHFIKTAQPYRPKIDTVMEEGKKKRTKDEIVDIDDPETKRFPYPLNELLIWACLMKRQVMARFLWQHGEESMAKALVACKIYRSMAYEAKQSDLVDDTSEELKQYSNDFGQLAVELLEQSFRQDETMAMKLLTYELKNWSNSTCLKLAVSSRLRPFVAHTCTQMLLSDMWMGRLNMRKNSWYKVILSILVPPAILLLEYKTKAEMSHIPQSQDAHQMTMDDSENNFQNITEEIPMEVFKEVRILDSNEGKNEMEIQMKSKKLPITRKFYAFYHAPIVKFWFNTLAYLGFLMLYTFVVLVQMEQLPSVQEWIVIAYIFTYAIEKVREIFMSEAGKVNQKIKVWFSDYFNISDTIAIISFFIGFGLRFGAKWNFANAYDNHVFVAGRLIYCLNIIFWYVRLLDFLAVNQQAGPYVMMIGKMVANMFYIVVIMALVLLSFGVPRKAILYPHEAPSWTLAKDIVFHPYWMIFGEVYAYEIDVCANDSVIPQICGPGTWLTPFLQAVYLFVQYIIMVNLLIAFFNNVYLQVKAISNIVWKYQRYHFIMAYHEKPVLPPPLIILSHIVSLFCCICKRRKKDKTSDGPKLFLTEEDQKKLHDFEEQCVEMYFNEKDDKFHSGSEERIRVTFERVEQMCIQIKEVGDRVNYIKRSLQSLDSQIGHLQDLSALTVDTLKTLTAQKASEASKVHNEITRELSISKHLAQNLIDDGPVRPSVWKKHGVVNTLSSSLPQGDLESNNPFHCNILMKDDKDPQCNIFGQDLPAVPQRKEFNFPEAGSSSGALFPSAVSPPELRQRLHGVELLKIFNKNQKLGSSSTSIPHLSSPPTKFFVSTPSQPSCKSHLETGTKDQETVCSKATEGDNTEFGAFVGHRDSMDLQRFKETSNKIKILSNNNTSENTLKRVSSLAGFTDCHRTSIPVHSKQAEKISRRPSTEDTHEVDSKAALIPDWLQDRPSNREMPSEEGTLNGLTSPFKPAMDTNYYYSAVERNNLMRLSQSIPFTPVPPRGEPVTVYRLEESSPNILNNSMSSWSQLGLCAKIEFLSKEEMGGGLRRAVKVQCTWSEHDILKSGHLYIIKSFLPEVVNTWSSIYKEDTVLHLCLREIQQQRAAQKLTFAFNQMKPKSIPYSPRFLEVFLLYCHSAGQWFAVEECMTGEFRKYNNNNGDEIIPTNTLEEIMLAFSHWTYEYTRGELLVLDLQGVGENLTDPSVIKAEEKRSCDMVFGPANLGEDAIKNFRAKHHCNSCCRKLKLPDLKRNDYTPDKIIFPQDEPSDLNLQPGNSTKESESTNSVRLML

For orientation: IC50 means the concentration needed to halve the response being measured. With `[Mg+2]` [Mg^2+], the IC50 is about 600 µM.

In the case of `Nc1ncnc2c1ncn2[C@@H]1O[C@H](COP(=O)(O)OP(=O)(O)OP(=O)(O)O)[C@@H](O)[C@H]1O` [MgATP], the 50% inhibitory concentration (IC50) is about 600 µM.
